{
  "source": "PubChem BioAssay AID330",
  "about": "(DTP/NCI, 2004)",
  "system": "P388 leukemia ip, CD2F1 mice, survival T/C",
  "assay": "NCI In Vivo Anticancer Drug Screen. Data for tumor model P388 Leukemia (intraperitoneal) in CD2F1 (CDF1) mice",
  "settings": "endpoint: median survival time, higher = longer survival",
  "in_short": "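Mice carrying the transplanted tumor received test compound or vehicle. Survival was recorded in each group, and the value is the treated-group measurement divided by that of the vehicle-treated control group.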",
  "key": {"[1]": {"settings": "dose: 50.0 mg/kg/injection, schedule: Q01DX005 (ip), vehicle: saline"}, "[2]": {"settings": "dose: 200.0 mg/kg/injection, schedule: Q01DX005 (ip), vehicle: saline"}, "[3]": {"settings": "dose: 50.0 mg/kg/injection, schedule: Q01DX009 (ip), vehicle: saline with Tween-80"}, "[4]": {"settings": "dose: 100.0 mg/kg/injection, schedule: Q01DX009 (ip), vehicle: saline with Tween-80"}, "[5]": {"settings": "dose: 200.0 mg/kg/injection, schedule: Q01DX009 (ip), vehicle: saline with Tween-80"}},
  "note": "Several values for one entry are separate records, joined by “and”; a condition that tells them apart may be missing. Equal entries are not always repeated. Inconclusive results and toxic doses are left out.",
  "data": [
    {"smiles": "CN1NC1(C)C", "note": "(stereo not drawn)", "values": [
      {"measurement": "T/C", "setting": "dose: 50.0 mg/kg/injection, schedule: Q04DX002 (ip), vehicle: saline", "result": "100 % of control"},
      {"measurement": "T/C", "setting": "dose: 100.0 mg/kg/injection, schedule: Q04DX002 (ip), vehicle: saline", "result": "110 % of control"},
      {"measurement": "T/C", "setting": "dose: 200.0 mg/kg/injection, schedule: Q04DX002 (ip), vehicle: saline", "result": "98 % of control"}
    ]},
    {"smiles": "CC(=O)NC1C(Nc2ccc(S(=O)(=O)Nc3ccnn3-c3ccccc3)cc2)OC(CO)C(O)C1O", "note": "(stereo not drawn)", "values": [
      {"measurement": "T/C", "setting": "[1]", "result": "108 % of control"},
      {"measurement": "T/C", "setting": "dose: 100.0 mg/kg/injection, schedule: Q01DX005 (ip), vehicle: saline", "result": "100 % of control"},
      {"measurement": "T/C", "setting": "[2]", "result": "106 % of control"}
    ]},
    {"smiles": "CC1CC2OC(=O)C3=C2C(CCC3)C12CC(c1ccoc1)OC2=O", "note": "(stereo not drawn)", "values": [
      {"measurement": "T/C", "setting": "dose: 12.5 mg/kg/injection, schedule: Q01DX009 (ip), vehicle: saline with Tween-80", "result": "91 % of control"},
      {"measurement": "T/C", "setting": "dose: 25.0 mg/kg/injection, schedule: Q01DX009 (ip), vehicle: saline with Tween-80", "result": "91 % of control and 89 % of control"},
      {"measurement": "T/C", "setting": "[3]", "result": "93 % of control"}
    ]},
    {"smiles": "C/C=C(\\C)C(=O)OC1C(C)C2(O)C(C=C(CO)CC3(O)C(=O)C(C)=CC32)C2C(C)(C)C12OC(=O)CCCCCCCCC", "note": "(stereo not drawn)", "values": [
      {"measurement": "T/C", "setting": "dose: 0.13 mg/kg/injection, schedule: Q01DX009 (ip), vehicle: saline + alcohol", "result": "124 % of control"},
      {"measurement": "T/C", "setting": "dose: 0.5 mg/kg/injection, schedule: Q01DX009 (ip), vehicle: saline + alcohol", "result": "124 % of control"}
    ]},
    {"smiles": "CCCCCCC(=O)/C=C/c1ccc(OC)c(OC)c1OC", "values": [
      {"measurement": "T/C", "setting": "[3]", "result": "96 % of control"},
      {"measurement": "T/C", "setting": "[4]", "result": "96 % of control"},
      {"measurement": "T/C", "setting": "[5]", "result": "102 % of control"}
    ]},
    {"smiles": "CC(C)(C)[Si](C)(C)OCc1ccccc1N1C(=O)C(NC(=O)Cc2ccccc2)C1/C=C/c1ccccc1", "note": "(stereo not drawn)", "values": [
      {"measurement": "T/C", "setting": "[3]", "result": "99 % of control"},
      {"measurement": "T/C", "setting": "[4]", "result": "94 % of control"},
      {"measurement": "T/C", "setting": "[5]", "result": "92 % of control"}
    ]},
    {"smiles": "Cc1cc(=O)n2c(n1)sc1ccc3ccccc3c12", "values": [
      {"measurement": "T/C", "setting": "dose: 60.0 mg/kg/injection, schedule: Q01DX005 (ip), vehicle: saline with Tween-80", "result": "100 % of control"},
      {"measurement": "T/C", "setting": "dose: 120.0 mg/kg/injection, schedule: Q01DX005 (ip), vehicle: saline with Tween-80", "result": "100 % of control"},
      {"measurement": "T/C", "setting": "dose: 240.0 mg/kg/injection, schedule: Q01DX005 (ip), vehicle: saline with Tween-80", "result": "97 % of control"}
    ]},
    {"smiles": "NC(=S=O)C(N)=S=O", "values": [
      {"measurement": "T/C", "setting": "dose: 50.0 mg/kg/injection, schedule: Q01DX005 (ip), vehicle: saline with Tween-80", "result": "103 % of control and 110 % of control"},
      {"measurement": "T/C", "setting": "dose: 100.0 mg/kg/injection, schedule: Q01DX005 (ip), vehicle: saline with Tween-80", "result": "112 % of control and 117 % of control"}
    ]},
    {"smiles": "CC(=O)OC1c2c(C)coc2C(=O)C23OC2CCC(C)C13C", "note": "(stereo not drawn)", "values": [
      {"measurement": "T/C", "setting": "dose: 5.0 mg/kg/injection, schedule: Q01DX009 (ip), vehicle: saline with Tween-80", "result": "100 % of control"},
      {"measurement": "T/C", "setting": "dose: 10.0 mg/kg/injection, schedule: Q01DX009 (ip), vehicle: saline with Tween-80", "result": "102 % of control"},
      {"measurement": "T/C", "setting": "dose: 20.0 mg/kg/injection, schedule: Q01DX009 (ip), vehicle: saline with Tween-80", "result": "102 % of control"},
      {"measurement": "T/C", "setting": "dose: 40.0 mg/kg/injection, schedule: Q01DX009 (ip), vehicle: saline with Tween-80", "result": "96 % of control"}
    ]},
    {"smiles": "O=S1(=O)CCOc2ccccc2N1", "values": [
      {"measurement": "T/C", "setting": "dose: 100.0 mg/kg/injection, schedule: Q04DX003 (ip), vehicle: Klucel (hydroxypropylcellulose) (HPC)", "result": "96 % of control"},
      {"measurement": "T/C", "setting": "dose: 200.0 mg/kg/injection, schedule: Q04DX003 (ip), vehicle: Klucel (hydroxypropylcellulose) (HPC)", "result": "96 % of control"},
      {"measurement": "T/C", "setting": "dose: 400.0 mg/kg/injection, schedule: Q04DX003 (ip), vehicle: Klucel (hydroxypropylcellulose) (HPC)", "result": "90 % of control"}
    ]},
    {"smiles": "Nc1nc(=S)c2ncn(C3CC(O)C(CO)O3)c2[nH]1", "note": "(stereo not drawn)", "values": [
      {"measurement": "T/C", "setting": "dose: 10.0 mg/kg/injection, schedule: Q01DX009 (ip), vehicle: Klucel (hydroxypropylcellulose) (HPC)", "result": "118 % of control"},
      {"measurement": "T/C", "setting": "dose: 12.5 mg/kg/injection, schedule: Q01DX005 (ip), vehicle: saline", "result": "118 % of control"},
      {"measurement": "T/C", "setting": "dose: 12.5 mg/kg/injection, schedule: Q01DX005 (iv), vehicle: saline", "result": "101 % of control"},
      {"measurement": "T/C", "setting": "dose: 12.5 mg/kg/injection, schedule: Q01DX009 (ip), vehicle: Klucel (hydroxypropylcellulose) (HPC)", "result": "122 % of control"},
      {"measurement": "T/C", "setting": "dose: 20.0 mg/kg/injection, schedule: Q01DX009 (ip), vehicle: Klucel (hydroxypropylcellulose) (HPC)", "result": "95 % of control"},
      {"measurement": "T/C", "setting": "dose: 25.0 mg/kg/injection, schedule: Q01DX005 (ip), vehicle: saline", "result": "109 % of control"},
      {"measurement": "T/C", "setting": "dose: 25.0 mg/kg/injection, schedule: Q01DX005 (iv), vehicle: saline", "result": "102 % of control"},
      {"measurement": "T/C", "setting": "dose: 25.0 mg/kg/injection, schedule: Q01DX009 (ip), vehicle: saline sonified", "result": "168 % of control"},
      {"measurement": "T/C", "setting": "dose: 25.0 mg/kg/injection, schedule: Q01DX009 (ip), vehicle: saline", "result": "117 % of control"},
      {"measurement": "T/C", "setting": "[1]", "result": "109 % of control"},
      {"measurement": "T/C", "setting": "dose: 50.0 mg/kg/injection, schedule: Q01DX005 (iv), vehicle: saline", "result": "102 % of control and 106 % of control"},
      {"measurement": "T/C", "setting": "dose: 50.0 mg/kg/injection, schedule: Q01DX009 (ip), vehicle: Klucel (hydroxypropylcellulose) (HPC)", "result": "118 % of control"},
      {"measurement": "T/C", "setting": "[3]", "result": "162 % of control"},
      {"measurement": "T/C", "setting": "dose: 100.0 mg/kg/injection, schedule: Q01DX005 (iv), vehicle: saline", "result": "103 % of control and 108 % of control"},
      {"measurement": "T/C", "setting": "dose: 100.0 mg/kg/injection, schedule: Q01DX009 (ip), vehicle: Klucel (hydroxypropylcellulose) (HPC)", "result": "113 % of control"},
      {"measurement": "T/C", "setting": "dose: 100.0 mg/kg/injection, schedule: Q01DX009 (ip), vehicle: saline", "result": "169 % of control"},
      {"measurement": "T/C", "setting": "[2]", "result": "153 % of control"},
      {"measurement": "T/C", "setting": "dose: 200.0 mg/kg/injection, schedule: Q01DX005 (iv), vehicle: saline", "result": "122 % of control"},
      {"measurement": "T/C", "setting": "dose: 200.0 mg/kg/injection, schedule: Q01DX009 (ip), vehicle: saline", "result": "114 % of control"}
    ]}
  ]
}
